Assay results published in patent US10131652B2, “Pyrimidinyloxy benzene derivatives as herbicides” (E. I. DU PONT DE NEMOURS AND COMPANY, priority 2014, dated 2018).

Assays:
Format in all cases: in vivo
[1] = test system: galium (catchweed bedstraw, Galium aparine); assay: Test B postemergence plant response; settings: 0 to 100 scale, 0 no effect, 100 complete control
How it was run: (§1)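 Visual injury rating, 0–100 (0 = no effect, 100 = complete control), vs untreated controls ~10 days after postemergence spray; greenhouse; potted loam soil/sand; plants 2–10 cm, 1–2 leaf stage.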

[2] = test system: blackgrass (Alopecurus myosuroides); assay: Test B postemergence plant response; settings: 0 to 100 scale, 0 no effect, 100 complete control
How it was run: as §1

[3] = test system: wheat (Triticum aestivum); assay: Test B pre-/postemergence plant response; settings: 0 to 100 scale, 0 no effect, 100 complete control
From the text: (§2) Seeds of plant species selected from bamyardgrass (Echinochloa crus-galli), kochia (Kochia scoparia), ragweed (common ragweed, Ambrosia elatior), Italian ryegrass (Lolium multiflorum), large (Lg) crabgrass (Digitaria sanguinalis), giant foxtail (Setaria faberii), momingglory (Ipomoea spp.), pigweed (Amaranthus retroflexus), velvetleaf (Abutilon theophrasti), wheat (Triticum aestivum), and corn (Zea mays) were planted into a blend of loam soil and sand and treated preemergence with a directed soil spray using test chemicals formulated in a non-phytotoxic solvent mixture which included a surfactant. At the same time, plants selected from these crop and weed species and also blackgrass (Alopecurus myosuroides), and galium (catchweed bedstraw, Galium aparine) were planted in pots containing the same blend of loam soil and sand and treated with postemergence applications of test chemicals formulated in the same manner. Plants ranged in height from 2 to 10 cm and were in the one- to two-leaf stage for the postemergence treatment. Treated plants and untreated controls were maintained in a greenhouse for approximately 10 days, after which time all treated plants were compared to untreated controls and visually evaluated for injury. Plant response ratings, summarized in Table B, are based on a 0 to 100 scale where 0 is no effect and 100 is complete control. A dash (-) response means no test result.

[4] = test system: pigweed (Amaranthus retroflexus); assay: Test B pre-/postemergence plant response
From the text: as §2

[5] = test system: barnyardgrass (Echinochloa crus-galli); assay: Test B pre-/postemergence plant response
From the text: as §2

[6] = test system: Italian ryegrass (Lolium multiflorum); assay: Test B pre-/postemergence plant response
From the text: as §2

[7] = test system: ragweed (common ragweed, Ambrosia elatior); assay: Test B pre-/postemergence plant response
From the text: as §2

corn (Zea mays) = assay: Test B pre-/postemergence plant response; settings: 0 to 100 scale, 0 no effect, 100 complete control
From the text: as §2

[8] = test system: giant foxtail (Setaria faberii); assay: Test B pre-/postemergence plant response
From the text: as §2

kochia (Kochia scoparia) = assay: Test B pre-/postemergence plant response
From the text: as §2

[9] = test system: barnyardgrass (Echinochloa crus-galli); assay: Test C flooded paddy test plant response; settings: Flood, 250 g ai/ha; scale of 0 to 100 where 0 is no effect and 100 is complete control; 13 to 15 days
How it was run: (§3)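 Flooded-pot format, 3 cm water over soil maintained for the test duration; test compounds dispensed into the water at the 2-leaf stage. Greenhouse holding 13 to 15 days. Plants evaluated visually relative to untreated controls, 0 meaning no effect and 100 complete control.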

[10] = test system: ducksalad (Heteranthera limosa); assay: Test C flooded paddy test plant response; settings: Flood, 250 g ai/ha; scale of 0 to 100 where 0 is no effect and 100 is complete control; 13 to 15 days
How it was run: as §3

rice (Oryza sativa) = assay: Test C flooded paddy test plant response; settings: Flood, 250 g ai/ha; scale of 0 to 100 where 0 is no effect and 100 is complete control; 13 to 15 days
How it was run: as §3

[11] = test system: small-flower umbrella sedge (Cyperus difformis); assay: Test C flooded paddy test plant response; settings: Flood, 250 g ai/ha; scale of 0 to 100 where 0 is no effect and 100 is complete control; 13 to 15 days
How it was run: as §3

[12] = 31 g ai/ha, Postemergence, 0 to 100 scale, 0 no effect, 100 complete control
[13] = 125 g ai/ha, postemergence, 0 to 100 scale, 0 no effect, 100 complete control
[14] = Preemergence, 31 g ai/ha, 0 to 100 scale (0 no effect, 100 complete control)
[15] = Preemergence, 125 g ai/ha, 0 to 100 scale where 0 is no effect and 100 is complete control
[16] = 31 g ai/ha, Preemergence, 0 to 100 scale where 0 is no effect and 100 is complete control

SMILES | Plant response rating, Galium ([1]; 31 g ai/ha, Postemergence) | Plant response rating, Galium ([1]; 125 g ai/ha, postemergence) | Plant response rating, Blackgrass ([2]; 31 g ai/ha, Postemergence) | Plant response rating, Blackgrass ([2]; 125 g ai/ha, postemergence) | Plant response rating, Wheat ([3]; 31 g ai/ha, Postemergence) | Plant response rating, Wheat ([3]; 125 g ai/ha, postemergence) | Plant response rating, Pigweed [4, 12] | Plant response rating, Pigweed [4, 13] | Plant response rating, Pigweed [4, 15] | Plant response rating, Barnyardgrass [5, 12] | Plant response rating, Barnyardgrass [5, 13] | Plant response rating, Barnyardgrass [5, 15] | Plant response rating, Ryegrass, Italian [6, 12] | Plant response rating, Ryegrass, Italian [6, 13] | Plant response rating, Ryegrass, Italian [6, 15] | Plant response rating, Ragweed [7, 12] | Plant response rating, Ragweed [7, 13] | Plant response rating, Ragweed [7, 15] | Plant response rating, Corn (corn (Zea mays); 31 g ai/ha, Postemergence) | Plant response rating, Corn (corn (Zea mays); 125 g ai/ha, postemergence) | also measured
Fc1cc(F)c(-c2cc(C(F)F)no2)c(Oc2ncc(Cl)cn2)c1 [Compound 107] | 0 | 0 | 0 | 0 | 0 | 0 | 0 | 0 | 0 | 0 | 0 | 0 | 0 | 0 | 0 | 0 | 0 | 0 | 0 | 0 | Pigweed plant response rating [4, 14]: 0; Barnyardgrass plant response rating [5, 14]: 0; Ryegrass, Italian plant response rating [6, 14]: 0; Ragweed plant response rating [7, 14]: 0; Plant response rating, Foxtail, Giant [8, 12]: 0; Plant response rating, Foxtail, Giant [8, 13]: 0; Foxtail, Giant plant response rating [8, 14]: 0; Plant response rating, Foxtail, Giant [8, 15]: 0; Plant response rating, Kochia (kochia (Kochia scoparia); [12]): 0; Plant response rating, Kochia (kochia (Kochia scoparia); [13]): 0; Kochia plant response rating (kochia (Kochia scoparia); [14]): 0; Plant response rating, Kochia (kochia (Kochia scoparia); [15]): 0; Barnyardgrass plant response rating [9]: 0; Ducksalad plant response rating [10]: 0; Rice plant response rating (rice (Oryza sativa)): 0; Sedge, Umbrella plant response rating [11]: 0
CCOC(OCC)c1cc(-c2ccccc2Oc2ncc(Cl)cn2)on1 [Compound 108] | 30 | 50 | 0 | 0 | 0 | 0 | 0 | 0 | 0 | 0 | 0 | 0 | 0 | 0 | 0 | 0 | 0 | 0 | 0 | 10 | Plant response rating, Pigweed [4, 16]: 0; Plant response rating, Barnyardgrass [5, 16]: 0; Plant response rating, Ryegrass, Italian [6, 16]: 0; Plant response rating, Ragweed [7, 16]: 0; Plant response rating, Foxtail, Giant [8, 12]: 0; Plant response rating, Foxtail, Giant [8, 16]: 0; Plant response rating, Foxtail, Giant [8, 13]: 0; Plant response rating, Foxtail, Giant [8, 15]: 0; Plant response rating, Kochia (kochia (Kochia scoparia); [12]): 0; Plant response rating, Kochia (kochia (Kochia scoparia); [16]): 0; Plant response rating, Kochia (kochia (Kochia scoparia); [13]): 0; Plant response rating, Kochia (kochia (Kochia scoparia); [15]): 0; Barnyardgrass plant response rating [9]: 0; Ducksalad plant response rating [10]: 0; Rice plant response rating (rice (Oryza sativa)): 0; Sedge, Umbrella plant response rating [11]: 0
